Experiment: Time to dissolve in 0.5 M aqueous sodium hydroxide solution at 20° C.
Type: physicochemical
Protocol: The novel acetoacetarylamides dissolve in a 0.5 N sodium hydroxide solution at 20° C. in from approximately half to one third of the time required by a dried acetoacetarylide prepared according to the prior art.
Water was introduced into a 1.5 l bench stirrer and adjusted to a temperature of 20° C. The stirrer was then rendered inert using nitrogen. Using two pumps, 133 g of aniline and 124 g of diketene were metered in over the course of 10 minutes. The addition of aniline was delayed by about 30 sec. At the end of the metered addition, the reaction temperature increased to 65° to 70° C. The mixture was then allowed to react for a further 30 minutes, and the reaction temperature dropped to 60° C. Vacuum cooling (450 to 120 mbar) was used to cool the mixture to 40° C., and the liquid acetoacetanilide began to crystallize, as a result of which the temperature immediately rose to about 58° C. The mixture was then cooled to 15° C. At 15° C., the solid product was centrifuged off, washed with 50 ml of water and dried at 50° C. under reduced pressure for 12 h. This method gave acetoacetanilide having a content of >99.5 percent (with a residual moisture content of <0.1 percent). The yield in terms of aniline was 97.1 percent, and in terms of diketene was 92.0 percent. A crystalline product having an average particle size of 450 to 500 μm was obtained. 50 g of the resulting acetoacetanilide (dry, 99.5 percent, water content <0.1 percent) dissolved completely at 20° C. in 500 ml of a 0.5 M aqueous sodium hydroxide solution in 25 minutes.
This gave white flakes having an average thickness of 0.08 mm and an average diameter of from 0.5 mm to […]. 55.6 g of the resulting acetoacetanilide (moist, content of acetoacetanilide 89.5 percent, water content 10 percent) dissolved completely at 20° C. in 500 ml of a 0.5 M aqueous sodium hydroxide solution in about 15 minutes.

[1] = 60 g moist pastilles in 700 ml of 0.5 M aqueous sodium hydroxide solution
[2] = 60 g moist pastilles in 500 ml of 0.5 M aqueous sodium hydroxide solution
[3] = 55.6 g (moist, content 89.5 percent, water content 10 percent) in 500 ml of 0.5 M aqueous sodium hydroxide solution

**Q.** With CC(=O)CC(=O)Nc1ccc(C)cc1C [Example 9, m-acetoacetoxylidide] as the compound, how does the time to dissolve [1] read?
**A.** about 18 minutes

**Q.** With COc1ccccc1NC(=O)CC(C)=O [Example 7, o-acetoacetanisidide] as the compound, how does the time to dissolve [2] read?
**A.** about 20 minutes

**Q.** For CC(=O)CC(=O)Nc1ccccc1 [Example 1, Acetoacetanilide, reference compound], which “time to dissolve completely” value (50 g (dry, 99.5 percent, water content <0.1 percent) in 500 ml of 0.5 M aqueous sodium hydroxide solution) is on record?
**A.** 25 min

**Q.** For CC(=O)CC(=O)Nc1ccccc1 [Example 4, Acetoacetanilide], which “time to dissolve completely” value [3] is on record?
**A.** about 15 minutes

**Q.** Which “time to dissolve completely” value [3] does the source give for CC(=O)CC(=O)Nc1ccccc1 [Example 6, Acetoacetanilide] here?
**A.** about 17 minutes

**Q.** With CC(=O)CC(=O)Nc1ccccc1 [Example 5, Acetoacetanilide] as the compound, how does the “time to dissolve completely” value [3] read?
**A.** about 17 minutes

**Q.** Which time to dissolve [2] does the source give for CC(=O)CC(=O)Nc1ccccc1Cl [Example 10, o-Acetoacetochloroanilide] here?
**A.** about 18 minutes

**Q.** For CC(=O)CC(=O)Nc1ccccc1C [Example 8, o-acetoacetotoluidide], which time to dissolve [1] is on record?
**A.** about 19 minutes

From patent US6586631B1, “Acetoacetarylamides” (Lonza, Ltd., priority 1998, dated 2003)
